Data on three molecules can be found in patent US12275731B2, “Azaindole inhibitors of wild-type and mutant forms of LRRK2” (DANA-FARBER CANCER INSTITUTE, INC., priority 2018, dated 2025).

Assay in all cases: KinomeScan profiling
Holding throughout (format): binding

The target in test [1] is T1, ABL1(Y253F)-phosphorylated (Homo sapiens, UniProt P00519, Y253F).
T1 construct: purchased KinomeScan®
As to conditions: read-out: % control. An outline of the steps: (§1)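 1 μM cpd in DMSO; 468-kinase panel; readout RLU. % ctrl = (cpd − pos ctrl)/(neg ctrl − pos ctrl) ×100. Pos ctrl = 0%, DMSO = 100%. Hit cut-off <35%.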

The target in test [2] is T2, AKT3 (Homo sapiens, UniProt Q9Y243).
T2 construct: purchased KinomeScan®
As to conditions: AKT3, 1 μM; read-out: % control. In a few lines: as §1

For test [3], the target named is T3, ALK(C1156Y) (Homo sapiens, UniProt Q9UM73, C1156Y).
T3 construct: purchased KinomeScan®
T3 sequence (Q9UM73 19-1620 C1156Y): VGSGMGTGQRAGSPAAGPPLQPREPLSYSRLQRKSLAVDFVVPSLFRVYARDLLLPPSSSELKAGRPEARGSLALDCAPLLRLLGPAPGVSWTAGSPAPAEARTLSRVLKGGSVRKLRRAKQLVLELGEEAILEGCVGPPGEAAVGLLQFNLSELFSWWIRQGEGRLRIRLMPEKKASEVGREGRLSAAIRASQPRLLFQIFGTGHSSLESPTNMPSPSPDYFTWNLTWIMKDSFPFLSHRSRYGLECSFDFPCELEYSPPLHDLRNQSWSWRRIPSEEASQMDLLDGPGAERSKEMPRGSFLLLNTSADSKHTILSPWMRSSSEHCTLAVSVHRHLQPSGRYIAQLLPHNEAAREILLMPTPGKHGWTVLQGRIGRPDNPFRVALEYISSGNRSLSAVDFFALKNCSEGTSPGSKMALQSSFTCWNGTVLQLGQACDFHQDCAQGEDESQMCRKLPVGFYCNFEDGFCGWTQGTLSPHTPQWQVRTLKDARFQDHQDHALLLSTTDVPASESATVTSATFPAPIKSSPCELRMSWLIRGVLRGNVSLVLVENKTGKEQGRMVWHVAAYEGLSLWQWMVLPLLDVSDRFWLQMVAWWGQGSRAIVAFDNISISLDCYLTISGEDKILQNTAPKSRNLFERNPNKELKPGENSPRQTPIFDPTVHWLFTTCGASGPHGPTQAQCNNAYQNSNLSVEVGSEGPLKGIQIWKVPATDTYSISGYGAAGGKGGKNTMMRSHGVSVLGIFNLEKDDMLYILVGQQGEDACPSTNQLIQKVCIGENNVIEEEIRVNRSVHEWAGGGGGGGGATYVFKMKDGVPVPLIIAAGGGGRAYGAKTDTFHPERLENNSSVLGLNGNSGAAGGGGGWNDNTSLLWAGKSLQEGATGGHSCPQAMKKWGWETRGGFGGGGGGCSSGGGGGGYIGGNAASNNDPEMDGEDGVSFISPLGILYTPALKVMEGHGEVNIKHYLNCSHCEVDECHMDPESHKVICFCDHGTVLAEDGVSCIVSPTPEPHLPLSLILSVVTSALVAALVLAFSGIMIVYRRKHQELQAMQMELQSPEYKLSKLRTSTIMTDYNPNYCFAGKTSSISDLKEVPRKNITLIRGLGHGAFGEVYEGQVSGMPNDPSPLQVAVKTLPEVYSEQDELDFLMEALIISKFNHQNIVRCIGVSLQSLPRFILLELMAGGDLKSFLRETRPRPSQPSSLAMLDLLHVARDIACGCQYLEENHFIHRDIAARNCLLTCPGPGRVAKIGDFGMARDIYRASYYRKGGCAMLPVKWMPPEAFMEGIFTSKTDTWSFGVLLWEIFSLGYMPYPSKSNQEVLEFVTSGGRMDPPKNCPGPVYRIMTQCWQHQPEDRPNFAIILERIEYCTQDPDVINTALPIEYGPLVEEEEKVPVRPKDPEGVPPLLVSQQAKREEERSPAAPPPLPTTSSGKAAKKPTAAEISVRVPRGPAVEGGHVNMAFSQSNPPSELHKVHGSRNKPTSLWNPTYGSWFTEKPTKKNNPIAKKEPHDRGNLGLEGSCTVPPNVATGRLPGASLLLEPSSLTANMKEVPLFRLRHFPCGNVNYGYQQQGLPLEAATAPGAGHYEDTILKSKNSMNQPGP
As to conditions: read-out: % control. In a few lines: as §1

The target of test [4] is CSNK1A1 (Homo sapiens, UniProt P48729). As to conditions: CSNK1A1, 1 μM; read-out: % control. In a few lines:
as §1

The target of test [5] is T4, DRAK2 (Homo sapiens, UniProt O94768).
T4 sequence (O94768 1-372): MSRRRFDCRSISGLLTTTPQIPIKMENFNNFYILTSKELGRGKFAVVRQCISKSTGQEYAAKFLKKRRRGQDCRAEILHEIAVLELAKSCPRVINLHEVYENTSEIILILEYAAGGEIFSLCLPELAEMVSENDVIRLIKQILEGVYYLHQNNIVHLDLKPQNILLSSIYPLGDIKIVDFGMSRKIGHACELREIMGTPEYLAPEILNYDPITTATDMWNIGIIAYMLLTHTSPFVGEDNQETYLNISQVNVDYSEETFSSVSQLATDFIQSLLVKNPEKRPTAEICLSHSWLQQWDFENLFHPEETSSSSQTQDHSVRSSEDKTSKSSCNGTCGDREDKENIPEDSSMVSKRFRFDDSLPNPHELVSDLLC
As to conditions: DRAK2, 1 μM; read-out: % control. In a few lines:
as §1

Test [6] concerns the target EGFR(L858R, T790M) (Homo sapiens, UniProt P00533, L858R/T790M). As to conditions: read-out: % control. An outline of the steps:
as §1

The target in test [7] is T5, EPHB3 (Homo sapiens, UniProt P54753).
T5 sequence (P54753 34-998): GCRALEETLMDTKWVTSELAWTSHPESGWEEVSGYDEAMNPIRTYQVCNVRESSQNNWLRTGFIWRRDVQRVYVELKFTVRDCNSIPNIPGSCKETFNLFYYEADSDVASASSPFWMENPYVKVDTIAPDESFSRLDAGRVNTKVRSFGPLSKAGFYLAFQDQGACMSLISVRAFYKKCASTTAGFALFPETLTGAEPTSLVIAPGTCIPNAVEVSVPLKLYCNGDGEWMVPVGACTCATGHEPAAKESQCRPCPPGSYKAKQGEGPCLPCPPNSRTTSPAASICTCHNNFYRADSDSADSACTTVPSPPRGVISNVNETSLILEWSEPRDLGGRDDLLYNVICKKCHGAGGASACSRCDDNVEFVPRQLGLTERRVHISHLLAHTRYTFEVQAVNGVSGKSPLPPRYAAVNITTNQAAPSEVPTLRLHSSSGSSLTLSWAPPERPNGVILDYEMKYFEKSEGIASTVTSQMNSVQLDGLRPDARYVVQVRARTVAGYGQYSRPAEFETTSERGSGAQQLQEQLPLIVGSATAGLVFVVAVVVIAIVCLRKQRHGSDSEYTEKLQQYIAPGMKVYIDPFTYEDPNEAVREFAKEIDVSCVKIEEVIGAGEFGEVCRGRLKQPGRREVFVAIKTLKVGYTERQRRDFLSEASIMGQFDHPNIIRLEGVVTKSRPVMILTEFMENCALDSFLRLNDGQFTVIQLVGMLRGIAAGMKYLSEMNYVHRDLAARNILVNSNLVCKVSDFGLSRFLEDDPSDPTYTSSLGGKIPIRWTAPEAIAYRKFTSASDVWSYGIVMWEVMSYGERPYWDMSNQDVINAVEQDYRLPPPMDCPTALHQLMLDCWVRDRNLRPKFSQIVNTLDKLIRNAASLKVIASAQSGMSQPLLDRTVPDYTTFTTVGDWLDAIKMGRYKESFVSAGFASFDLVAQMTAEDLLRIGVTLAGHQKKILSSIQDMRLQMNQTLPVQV
As to conditions: EPHB3, 1 μM; read-out: % control. An outline of the steps: as §1

Test [8] addresses ERBB3 (Homo sapiens, UniProt P21860). As to conditions: ERBB3, 1 μM; read-out: % control. In a few lines:
as §1

The target in test [9] is ERK4 (Homo sapiens, UniProt P31152). As to conditions: ERK4, 1 μM; read-out: % control. In a few lines:
as §1

The target in test [10] is MTOR (Homo sapiens, UniProt P42345). As to conditions: read-out: % control. In a few lines: as §1
In test [11] the target is T6, PIK3CA(E545A) (Homo sapiens, UniProt P42336, E545A).
T6 construct: purchased KinomeScan® (panel service)
As to conditions: read-out: % control. An outline of the steps:
as §1

Test [12] concerns the target T7, TXK (Homo sapiens, UniProt P42681).
T7 sequence (P42681 1-527): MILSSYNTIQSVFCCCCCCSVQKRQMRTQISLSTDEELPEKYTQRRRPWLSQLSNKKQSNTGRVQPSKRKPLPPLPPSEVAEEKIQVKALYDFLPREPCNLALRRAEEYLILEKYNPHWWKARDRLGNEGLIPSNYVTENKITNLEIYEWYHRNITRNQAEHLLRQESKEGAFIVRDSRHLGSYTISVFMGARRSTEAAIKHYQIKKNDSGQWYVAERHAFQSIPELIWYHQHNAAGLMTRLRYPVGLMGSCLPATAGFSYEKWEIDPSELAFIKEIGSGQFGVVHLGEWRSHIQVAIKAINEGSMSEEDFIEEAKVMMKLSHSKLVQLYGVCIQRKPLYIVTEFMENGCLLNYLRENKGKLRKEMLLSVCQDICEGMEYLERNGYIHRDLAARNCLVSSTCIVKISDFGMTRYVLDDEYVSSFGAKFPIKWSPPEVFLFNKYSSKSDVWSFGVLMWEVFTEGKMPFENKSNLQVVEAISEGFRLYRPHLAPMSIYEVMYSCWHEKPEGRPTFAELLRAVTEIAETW
As to conditions: read-out: % control. In a few lines: as §1

In test [13] the target is p38-beta (Homo sapiens, UniProt Q15759). As to conditions: read-out: % control. In a few lines: as §1

Chain of ERK4 (P31152 whole entry): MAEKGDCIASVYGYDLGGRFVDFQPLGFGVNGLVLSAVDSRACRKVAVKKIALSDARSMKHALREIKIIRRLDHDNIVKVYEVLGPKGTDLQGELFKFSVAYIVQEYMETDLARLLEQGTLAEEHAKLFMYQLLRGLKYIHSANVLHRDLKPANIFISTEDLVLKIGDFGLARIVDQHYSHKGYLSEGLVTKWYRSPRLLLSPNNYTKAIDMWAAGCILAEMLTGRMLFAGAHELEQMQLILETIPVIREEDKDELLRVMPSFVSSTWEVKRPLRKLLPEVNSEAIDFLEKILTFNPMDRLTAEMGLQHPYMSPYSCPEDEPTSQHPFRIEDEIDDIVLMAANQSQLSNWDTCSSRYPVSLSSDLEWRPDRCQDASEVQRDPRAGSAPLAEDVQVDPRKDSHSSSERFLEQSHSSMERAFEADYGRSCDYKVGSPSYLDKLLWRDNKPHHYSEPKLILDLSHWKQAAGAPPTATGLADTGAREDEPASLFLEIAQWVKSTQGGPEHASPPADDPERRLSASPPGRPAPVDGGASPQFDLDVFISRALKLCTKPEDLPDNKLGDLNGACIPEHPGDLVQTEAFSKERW
Chain of CSNK1A1 (P48729 whole entry): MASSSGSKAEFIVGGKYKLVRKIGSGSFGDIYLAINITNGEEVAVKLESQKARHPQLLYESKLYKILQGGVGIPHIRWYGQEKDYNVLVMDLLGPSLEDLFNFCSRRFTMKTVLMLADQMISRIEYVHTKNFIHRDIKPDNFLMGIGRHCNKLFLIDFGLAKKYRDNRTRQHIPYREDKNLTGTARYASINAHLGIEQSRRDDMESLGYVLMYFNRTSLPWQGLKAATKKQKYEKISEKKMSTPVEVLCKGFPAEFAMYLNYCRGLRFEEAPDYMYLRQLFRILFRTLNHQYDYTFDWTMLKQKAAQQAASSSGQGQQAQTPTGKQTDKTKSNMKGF
Chain of EGFR(L858R, T790M) (P00533 25-1210 T790M/L858R): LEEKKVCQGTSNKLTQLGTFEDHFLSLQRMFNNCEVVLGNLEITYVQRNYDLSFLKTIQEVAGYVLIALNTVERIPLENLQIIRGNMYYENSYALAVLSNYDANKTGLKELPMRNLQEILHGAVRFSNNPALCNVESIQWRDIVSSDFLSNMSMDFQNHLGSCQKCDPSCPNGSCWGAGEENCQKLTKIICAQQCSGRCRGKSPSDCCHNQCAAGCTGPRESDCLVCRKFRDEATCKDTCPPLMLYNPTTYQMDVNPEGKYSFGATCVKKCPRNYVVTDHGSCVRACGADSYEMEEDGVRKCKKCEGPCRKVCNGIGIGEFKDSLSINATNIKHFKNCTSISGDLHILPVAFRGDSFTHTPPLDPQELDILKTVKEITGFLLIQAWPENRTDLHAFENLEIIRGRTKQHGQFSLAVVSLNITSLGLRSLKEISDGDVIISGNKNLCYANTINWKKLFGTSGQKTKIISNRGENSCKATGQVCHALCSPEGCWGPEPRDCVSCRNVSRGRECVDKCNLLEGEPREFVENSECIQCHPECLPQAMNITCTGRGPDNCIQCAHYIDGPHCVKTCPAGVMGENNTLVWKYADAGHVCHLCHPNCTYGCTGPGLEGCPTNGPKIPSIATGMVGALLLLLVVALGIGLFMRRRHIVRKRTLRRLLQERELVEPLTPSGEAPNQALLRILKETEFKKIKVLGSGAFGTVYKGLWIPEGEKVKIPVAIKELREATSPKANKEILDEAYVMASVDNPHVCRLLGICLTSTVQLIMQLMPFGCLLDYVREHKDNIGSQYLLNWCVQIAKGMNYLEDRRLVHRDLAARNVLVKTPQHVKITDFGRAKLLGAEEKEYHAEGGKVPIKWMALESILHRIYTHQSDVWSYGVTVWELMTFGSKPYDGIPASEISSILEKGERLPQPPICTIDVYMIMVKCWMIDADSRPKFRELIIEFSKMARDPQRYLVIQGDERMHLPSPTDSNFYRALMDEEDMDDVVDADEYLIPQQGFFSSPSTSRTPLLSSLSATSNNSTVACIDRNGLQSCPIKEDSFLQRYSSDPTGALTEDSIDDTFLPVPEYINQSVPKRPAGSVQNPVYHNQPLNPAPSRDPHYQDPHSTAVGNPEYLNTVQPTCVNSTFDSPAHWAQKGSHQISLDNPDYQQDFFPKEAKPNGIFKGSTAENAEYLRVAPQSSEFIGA
Chain of ERBB3 (P21860 20-1342): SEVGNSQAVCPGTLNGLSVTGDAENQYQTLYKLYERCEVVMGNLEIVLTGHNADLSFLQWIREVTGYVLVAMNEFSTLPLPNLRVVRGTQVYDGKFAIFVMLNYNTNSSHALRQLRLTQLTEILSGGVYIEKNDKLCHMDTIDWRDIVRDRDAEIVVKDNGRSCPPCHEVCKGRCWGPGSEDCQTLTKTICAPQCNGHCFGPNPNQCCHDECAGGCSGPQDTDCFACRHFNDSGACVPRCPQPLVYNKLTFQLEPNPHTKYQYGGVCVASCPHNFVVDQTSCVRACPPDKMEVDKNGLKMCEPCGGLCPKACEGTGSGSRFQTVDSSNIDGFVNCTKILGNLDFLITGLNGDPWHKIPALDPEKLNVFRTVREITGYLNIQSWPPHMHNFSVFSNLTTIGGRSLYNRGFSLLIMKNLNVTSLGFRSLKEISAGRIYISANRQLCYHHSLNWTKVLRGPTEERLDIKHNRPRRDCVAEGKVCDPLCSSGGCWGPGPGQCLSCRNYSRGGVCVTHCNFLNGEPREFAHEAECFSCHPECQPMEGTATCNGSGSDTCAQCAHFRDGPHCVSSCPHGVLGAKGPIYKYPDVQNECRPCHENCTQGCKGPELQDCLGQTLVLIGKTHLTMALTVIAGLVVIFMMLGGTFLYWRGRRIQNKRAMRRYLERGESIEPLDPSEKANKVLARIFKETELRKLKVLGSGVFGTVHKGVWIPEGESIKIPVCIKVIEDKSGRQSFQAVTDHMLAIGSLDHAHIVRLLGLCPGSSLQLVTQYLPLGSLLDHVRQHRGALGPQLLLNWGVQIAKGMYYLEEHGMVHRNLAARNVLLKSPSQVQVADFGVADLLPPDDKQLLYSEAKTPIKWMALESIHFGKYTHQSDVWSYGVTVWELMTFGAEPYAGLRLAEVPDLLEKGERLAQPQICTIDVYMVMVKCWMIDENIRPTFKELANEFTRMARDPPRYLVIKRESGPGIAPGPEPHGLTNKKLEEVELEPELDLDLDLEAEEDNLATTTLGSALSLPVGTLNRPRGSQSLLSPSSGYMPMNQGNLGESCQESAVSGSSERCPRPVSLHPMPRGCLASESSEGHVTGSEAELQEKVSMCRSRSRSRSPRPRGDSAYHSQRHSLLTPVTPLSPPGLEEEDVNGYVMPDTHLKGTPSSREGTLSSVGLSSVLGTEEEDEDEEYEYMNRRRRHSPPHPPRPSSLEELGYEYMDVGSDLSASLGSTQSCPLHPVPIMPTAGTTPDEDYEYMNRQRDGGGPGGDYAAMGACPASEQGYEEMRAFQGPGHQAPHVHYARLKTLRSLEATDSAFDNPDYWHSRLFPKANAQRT

On to `CNc1c(-c2ccc(C(=O)N3CCC(N4CCOCC4)CC3)cc2)cnc2[nH]cc(Cl)c12` [Compound 96, (4-(3-chloro-4-(methylamino)-1H-pyrrolo[2,3-b]pyridin-5-yl)phenyl)(4-morpholinopiperidin-1-yl)methanone], for which the remaining binding at 1 µM in test [1] turned out to be 98%; in test [2], 100%; in [3], 37%; in test [4], 100%; in test [5], 19%; in [6], 98%. Also, the remaining binding at 1 µM is 100% in test [7]; 86% in test [8]; 94% in test [9]; 78% in [10]; 62% in test [11]; 81% in test [12]. The remaining binding at 1 µM in test [13] stood at 58%.
`O=C(c1ccc(-c2cnc3[nH]cc(Cl)c3c2NC2CCCC2)cc1)N1CCC(N2CCOCC2)CC1` [Compound 101, (4-(3-chloro-4-(cyclopentylamino)-1H-pyrrolo[2,3-b]pyridin-5-yl)phenyl)(4-morpholinopiperidin-1-yl)methanone]: the remaining binding at 1 µM in test [1] came to 100%; in test [2], 99%; in test [3], 66%; in [4], 89%; in [5] it was 92%; in test [6], 100%. For the same molecule, the remaining binding at 1 µM in [7] came to 79%; in test [8] it was 55%; in test [9] it was 93%; in test [10] it was 95%; in test [11], 98%; in test [12], 84%. Moreover, the remaining binding at 1 µM in [13] amounted to 92%.
On to `CNc1c(-c2cnn([C@H]3CCN(C(C)=O)C[C@@H]3F)c2)cnc2[nH]cc(Cl)c12` [Compound 77, 1-((3S,4S)-4-(4-(3-chloro-4-(methylamino)-1H-pyrrolo[2,3-b]pyridin-5-yl)-1H-pyrazol-1-yl)-3-fluoropiperidin-1-yl)ethan-1-one], for which the remaining binding at 1 µM worked out at 79% in test [1]; 95% in [2]; 47% in test [3]; 96% in test [4]; 47% in test [5]; 99% in test [6]. Moreover, the remaining binding at 1 µM was 100% in test [7]; 88% in test [8]; 90% in [9]; 60% in test [10]; 80% in [11]; 81% in test [12]. For the same molecule, the remaining binding at 1 µM in test [13] was 95%.
